Key:
[1] = tested on: HIP-specific T cell avatars; experiment: T cell avatar NanoLuciferase response, panel of HIP-specific avatars; type: cell-based, human; details: nine HIP-specific avatars; highest concentration 20 μM; weak left-hand response in 3 of 9 avatars; very weak C-peptide response in three cases
Procedure: (§1) The HIP super-pool bacteria were cultured from frozen glycerol stock in LB media with antibiotics at 37 °C with agitation 210 rpm. The overnight HIP-expressing bacteria cultures were diluted to an OD600 of 0.06 and grown in 48-well plates in 200 μl LB medium with antibiotics until an OD600 of 0.5 was reached. Protein expression was induced by adding isopropyl β-D-thiogalactopyranoside (2.0 mM, Sigma). Incubation was continued for another 4 h at 37 °C in a shaking incubator. […] After 22–24 h of coculture, the NanoLuciferase activity was measured using the Nano-Glo Luciferase assay (Promega) according to the manufacturer's instructions. Luminescence was measured on a plate reader (Enspire Perkin Elmer). Responses are reported as the Δluciferase, which is calculated by subtracting the average background (no antigen) luciferase reading measured in the negative control cultures from the response measured in the other treatments.
Peptides (Genscript) were dissolved in dimethyl sulfoxide (DMSO) to 5.0 mM, aliquoted and stored at −80 °C. The CD4^+ T cell avatars' responses to peptides were measured as described above; except synthetic peptides were used as antigens, instead of E. coli and the antigen/EBV cells were not cultured overnight before the T cell avatars were added. […] The T cell avatar's responses were measured as above. […]

[2] = tested on: T cell avatar A_4_2 (Jurkat expressing TCR from human islet-infiltrating CD4+ T cell, Donor A); experiment: T cell avatar NanoLuciferase response to synthetic peptide; type: cell-based; details: highest concentration tested 20 μM
Description: Briefly, we used CRISPR/Cas9 to generate a variant of the human T cell line Jurkat that was deficient in TRAC, TRBC, and CD4. […] This parental Jurkat line was then transduced with the TRAV and TRBV constructs that express the TRAV and TRBV genes that form the TCR expressed by human islet-infiltrating CD4^+ T cells. […] Transduced cells expressing CD3 and TCR were purified by flow cytometry or magnetic bead enrichment. Briefly, cells were resuspended in viral supernatant at 1–2 × 10^6/ml with 5 μg/ml polybrene. Cells were centrifuged at 1,200 rpm (300 g) for 60 min at room temperature, then diluted 1:1 in fresh medium and incubated overnight at 37 °C, 5% CO2. […] Compensation settings were determined using single-color controls. […]
The HIP super-pool bacteria were cultured from frozen glycerol stock in LB media with antibiotics at 37 °C with agitation 210 rpm. […] After 22–24 h of coculture, the NanoLuciferase activity was measured using the Nano-Glo Luciferase assay (Promega) according to the manufacturer's instructions. Luminescence was measured on a plate reader (Enspire Perkin Elmer). Responses are reported as the Δluciferase, which is calculated by subtracting the average background (no antigen) luciferase reading measured in the negative control cultures from the response measured in the other treatments. […]

[3] = tested on: T cell avatar A_4_8; experiment: as above; type: cell-based, human; details: highest concentration tested 20 μM
Description: (§2) Briefly, we used CRISPR/Cas9 to generate a variant of the human T cell line Jurkat that was deficient in TRAC, TRBC, and CD4. […] This parental Jurkat line was then transduced with the TRAV and TRBV constructs that express the TRAV and TRBV genes that form the TCR expressed by human islet-infiltrating CD4^+ T cells. […] Transduced cells expressing CD3 and TCR were purified by flow cytometry or magnetic bead enrichment. Briefly, cells were resuspended in viral supernatant at 1–2 × 10^6/ml with 5 μg/ml polybrene. Cells were centrifuged at 1,200 rpm (300 g) for 60 min at room temperature, then diluted 1:1 in fresh medium and incubated overnight at 37 °C, 5% CO2. Flow cytometry was performed on a Becton Dickinson LSR Fortessa to determine the proportion of CD3 and TCR expressing cells. The following antihuman mAbs were used for FACS staining: CD3-PE (UCHT1, BD Biosciences), and anti-TCRαβ-AF647 (IP26, BioLegend). Cells were stained with the appropriate mAb in phosphate buffered saline (PBS) 0.1% foetal bovine serum (FBS) for 20 min on ice, then washed twice. Dead cells were excluded by propidium iodide staining. Compensation settings were determined using single-color controls. TCR and CD3 expressing cells were purified by FACS or using REALease CD3 Microbead Kit (Miltenyi) following the manufacturer's instructions. All Jurkat T cell avatars used were >85% CD3^+/TCR^+.
as §1, with “reached.” for “reached. Protein expression was induced by adding isopropyl β-D-thiogalactopyranoside (2.0 mM, Sigma). Incubation was continued for another 4 h at 37 °C in a shaking incubator.”
(§3) Peptides (Genscript) were dissolved in dimethyl sulfoxide (DMSO) to 5.0 mM, aliquoted and stored at −80 °C. The CD4^+ T cell avatars' responses to peptides were measured as described above; except synthetic peptides were used as antigens, instead of E. coli and the antigen/EBV cells were not cultured overnight before the T cell avatars were added. A T cell's response to antigen was measured as luciferase activity using the Nano-Glo Luciferase assay system (Promega) according to the manufacturer's instructions (as above). The HLA-restriction of the HIP-specific CD4^+ T cell clones was determined in a two-step process as described previously ([10]). […]

[4] = tested on: T cell avatar A_4_7; experiment: as above; type: cell-based, human; details: highest concentration tested 20 μM
Description: as §2
as §1, with “reached.” for “reached. Protein expression was induced by adding isopropyl β-D-thiogalactopyranoside (2.0 mM, Sigma). Incubation was continued for another 4 h at 37 °C in a shaking incubator.”
as §3

[5] = tested on: T cell avatar A_4_6; details: previous characterisation, clone A3.10 (A_4_6); ref [15, 34]; cited from earlier work
Description: (§4) Supplement pgae491_supplementary_data.docx, table 6: Supplementary Table 6. Summary of previous characterisation of human islet-infiltrating CD4^+ T cells. | column: HLA-restriction

[6] = tested on: T cell avatar A_4_5; details: previous characterisation, clone A4.5 (A_4_5); ref [15, 34]; cited from earlier work
Description: as §4

[7] = tested on: T cell avatar K_4_161; experiment: T cell avatar NanoLuciferase response to synthetic peptide; type: cell-based, human
Description: as §2
as §1, with “reached.” for “reached. Protein expression was induced by adding isopropyl β-D-thiogalactopyranoside (2.0 mM, Sigma). Incubation was continued for another 4 h at 37 °C in a shaking incubator.”
as §3

[8] = tested on: T cell avatar A_4_8; details: previous characterisation, clone A5.8 (A_4_8); ref [5]; cited from earlier work
Description: as §4

[9] = tested on: T cell avatar A_4_7; details: previous characterisation, clone A5.5 (A_4_7); ref [5]; cited from earlier work
Description: as §4

[10] = tested on: T cell avatar A_4_2 (Jurkat expressing TCR from human islet-infiltrating CD4+ T cell, Donor A); details: previous characterisation, clone A1.9 (A_4_2); ref [5, 34]; cited from earlier work
Description: as §4

EAEDLQVGQVELGGGPGAGSLQPLALEGSLQ [C-peptide, full-length proinsulin C-peptide]
T cell avatar response (Δluciferase) to native peptide [1]: did not respond
response to full-length C-peptide (Δluciferase) [2]: very weak
response to full-length C-peptide (Δluciferase) [3]: very weak
response to full-length C-peptide (Δluciferase) [4]: very weak

GQVELGGG-NAVEVLK [HIP-6, previously reported C-peptide-IAPP2 HIP]
HLA-restriction [5]: HLA-DQ8
HLA-restriction [6]: HLA-DQ8

REAEDLQVG-VCGERGF [HIP-K, hybrid insulin peptide formed by fusion of proinsulin fragments]
HLA restriction ([7]; blocking mAbs and single-HLA APC lines, peptide 1.0 μM): DQ8
EC50 ([7]; synthetic peptide titration, autologous EBV B cells, NanoLuciferase, triplicate): > 20 µM

VELGGGPGA
HLA-restriction [8]: HLA-DQ8
HLA-restriction [9]: HLA-DQ8
HLA-restriction [10]: HLA-DQ8

From publication PMC11565411, “Proinsulin C-peptide is a major source of HLA-DQ8 restricted hybrid insulin peptides recognized by human islet-infiltrating CD4^+ T cells” (PNAS Nexus, 2024)
